Converted amounts (≈) assume the structure as drawn.
Legend:
[1] = test system: M. tuberculosis H37Rv strain; assay: Tuberculostatic activity, test-tube successive dilution in Youmans' medium; format: cell-based; conditions: Mycobacterium tuberculosis
[2] = test system: M. tuberculosis wild-type strain sp. 192 fully sensitive; assay: as above; format: cell-based; conditions: Mycobacterium tuberculosis
[3] = test system: Fortuitum; assay: Widened tuberculostatic tests; format: cell-based, Mycobacterium
[4] = test system: Intracellularum; assay: Widened tuberculostatic tests; format: cell-based, Mycobacterium
[5] = test system: An5; assay: Widened tuberculostatic tests; format: cell-based, Mycobacterium
[6] = test system: Wells; assay: Widened tuberculostatic tests; format: cell-based, Mycobacterium
[7] = test system: H37Rv; assay: Widened tuberculostatic tests; format: cell-based, Mycobacterium
[8] = test system: Phlei; assay: Widened tuberculostatic tests; format: cell-based, Mycobacterium
[9] = test system: Kansasii; assay: Widened tuberculostatic tests; format: cell-based, Mycobacterium
[10] = test system: Kirchberg; assay: Widened tuberculostatic tests; format: cell-based, Mycobacterium
[11] = test system: Scrofulaceum; assay: Widened tuberculostatic tests; format: cell-based, Mycobacterium
[12] = test system: Smegmatis; assay: Widened tuberculostatic tests; format: cell-based, Mycobacterium
[13] = test system: A549 and HCT116 cell lines; assay: MTT cytotoxicity, summary statements without cell line; format: cell-based; conditions: Homo sapiens, read-out: IC 50 (ca., cell line not stated)
[14] = test system: human non-small lung cancer cell line A549; assay: MTT viability assay; format: cell-based; conditions: 120 h

| SMILES | MIC [1] [µg/mL] | MIC [2] [µg/mL] | MIC [3] [μg cm^−3] | MIC [4] [μg cm^−3] | MIC [5] [μg cm^−3] | MIC [6] [μg cm^−3] | MIC [7] [μg cm^−3] | MIC [8] [μg cm^−3] | MIC [9] [μg cm^−3] | MIC [10] [μg cm^−3] | MIC [11] [μg cm^−3] | MIC [12] [μg cm^−3] | IC50 [13] [µM] | IC50 [14] [µM] |
| --- | --- | --- | --- | --- | --- | --- | --- | --- | --- | --- | --- | --- | --- | --- |
| COc1ccc(C(=O)NN=C(SC)SC)cc1 [Compound 11, Dimethyl 4-methoxybenzoylcarbonohydrazonodithioate] | 25 (≈ 92.5 µM) | 25 (≈ 92.5 µM) | – | – | – | – | – | – | – | – | – | – | – | – |
| CSC(=NNC(=O)c1ccc(Cl)c(Cl)c1)SC [Compound 5, Dimethyl 3,4-dichlorobenzoylcarbonohydrazonodithioate] | 6.2 (≈ 20 µM) | 3.1 (≈ 10 µM) | 100 | 100 | 12.5 | 6.2 | 6.2 | 100 | 6.2 | 12.5 | 25 | 100 | ~30 | – |
| N.N.[Cl][Pt][Cl] [Cis-Pt, Cisplatin] | – | – | – | – | – | – | – | – | – | – | – | – | – | 0.63 ± 0.018 |
| CSC(=NNC(=O)c1cccc(O)c1)SC [Compound 9, Dimethyl 3-hydroxybenzoylcarbonohydrazonodithioate] | 6.2 (≈ 24.2 µM) | 6.2 (≈ 24.2 µM) | 25 | 25 | 6.2 | 6.2 | 6.2 | – | – | – | 25 | – | – | – |
| COc1cc(C(=O)NN=C(SC)SC)cc(OC)c1OC [Compound 12, Dimethyl 3,4,5-trimethoxybenzoylcarbonohydrazonodithioate] | 25 (≈ 75.7 µM) | 50 (≈ 151 µM) | – | – | – | – | – | – | – | – | – | – | – | – |
| CSC(=NNC(=O)c1ccc(O)cc1)SC [Compound 10, Dimethyl 4-hydroxybenzoylcarbonohydrazonodithioate] | 3.1 (≈ 12.1 µM) | 6.2 (≈ 24.2 µM) | 100 | 100 | 6.2 | 12.5 | 6.2 | 100 | 25 | 50 | 50 | 100 | ~100 | – |
| CSC(=NNC(=O)c1ccc(Cl)cc1Cl)SC [Compound 4, Dimethyl 2,4-dichlorobenzoylcarbonohydrazonodithioate] | 6.2 (≈ 20 µM) | 6.2 (≈ 20 µM) | – | – | 6.2 | 12.5 | 6.2 | – | 25 | – | 25 | – | – | – |
| CSC(=NNC(=O)c1ccccc1O)SC [Compound 8, Dimethyl 2-hydroxybenzoylcarbonohydrazonodithioate] | – | 25 (≈ 97.5 µM) | – | – | – | – | – | – | – | – | – | – | – | – |
| COc1cccc2c1C(=O)c1c(O)c3c(c(O)c1C2=O)C[C@@](O)(C(=O)CO)C[C@@H]3O[C@H]1C[C@H](N)[C@H](O)[C@H](C)O1 [Dox, doxotubicin] | – | – | – | – | – | – | – | – | – | – | – | – | – | 0.008 ± 0.0011 |
| CSC(=NNC(=O)c1ccc(Cl)cc1)SC [Compound 3, Dimethyl 4-chlorobenzoylcarbonohydrazonodithioate] | 6.2 (≈ 22.6 µM) | 12.5 (≈ 45.5 µM) | 100 | 50 | 12.5 | 12.5 | 12.5 | 100 | 25 | 25 | 100 | 100 | – | – |
| CSC(=NNC(=O)c1ccccc1[N+](=O)[O-])SC [Compound 6, Dimethyl 2-nitrobenzoylcarbonohydrazonodithioate] | 25 (≈ 87.6 µM) | 50 (≈ 175 µM) | – | – | – | – | – | – | – | – | – | – | – | – |
| CSC(=NNC(=O)c1ccccc1Cl)SC [Compound 2, Dimethyl 2-chlorobenzoylcarbonohydrazonodithioate] | 25 (≈ 91 µM) | 25 (≈ 91 µM) | – | – | – | – | – | – | – | – | – | – | – | – |
| COc1ccc(CC(=O)NN=C(SC)SC)cc1OC [Compound 13, Dimethyl 2-(3,4-dimethoxyphenyl)acetylcarbonohydrazonodithioate] | 25 (≈ 79.5 µM) | 50 (≈ 159 µM) | – | – | – | – | – | – | – | – | – | – | – | – |
